# Assay results as given in US5519001A, “CETP inhibitor polypeptide antibodies against the synthetic polypeptide and prophylactic and therapeutic anti-atherosclerosis treatments” (Southwest Foundation for Biomedical Research, priority 1995, dated 1996).
# Ends that are not written are not given here.
# T1: Human CETP (Homo sapiens, UniProt P11597)
# T1 construct: To isolate human CETP, blood (5-10 ml) from human subjects was obtained in tubes containing EDTA; from tissue; host or cells: human plasma of individual donors, supernatant after heparin/MnCl2 and dextran sulfate precipitation of lipoproteins
# T1 sequence (P11597 18-493): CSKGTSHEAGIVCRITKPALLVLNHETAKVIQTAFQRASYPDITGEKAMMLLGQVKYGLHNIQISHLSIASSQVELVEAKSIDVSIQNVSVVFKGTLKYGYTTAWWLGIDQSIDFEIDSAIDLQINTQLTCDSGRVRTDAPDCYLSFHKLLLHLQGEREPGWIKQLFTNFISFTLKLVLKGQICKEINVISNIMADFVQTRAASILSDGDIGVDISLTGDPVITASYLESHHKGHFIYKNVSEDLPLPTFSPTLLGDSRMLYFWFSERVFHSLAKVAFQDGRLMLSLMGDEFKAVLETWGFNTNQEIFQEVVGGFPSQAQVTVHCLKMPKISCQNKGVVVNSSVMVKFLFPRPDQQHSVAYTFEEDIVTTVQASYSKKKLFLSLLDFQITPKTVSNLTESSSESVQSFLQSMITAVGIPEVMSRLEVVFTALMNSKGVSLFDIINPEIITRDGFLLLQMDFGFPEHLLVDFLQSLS
# Legend:
# CETP = assay: Cholesteryl ester transfer assay (3H CE-HDL to VLDL+LDL, baboon LPDS as CETP source); format: biochemical; conditions: for inhibitory activity of CETP: in vitro, result in words; for effect on transfer of CE from HDL to VLDL+LDL: electroeluted from gels, increasing concentrations, lipoproteins from low HDL1 baboons
# Procedure: The CE transfer activity of a sample was assayed by a modification of a procedure described previously (Kushwaha et al, (1986), supra). Briefly, ^3 H CE-labeled HDL3 containing 50-100 μg of CE from low HDL1 baboons was incubated with VLDL+LDL containing 100-300 μg CE in the presence of LPDS. The acceptor lipoproteins and the LPDS were obtained from low HDL1 baboon plasma (chow diet). In some cases, the HDL3 was obtained from high HDL1 baboons maintained on the HCHF diet. The incubations were carried out at 4° C. (control) and 37° C. for 4-6 hrs, and terminated by placing the samples on ice. The assay mixture was then ultracentrifuged to separate VLDL+LDL having a d>1.040 g/ml, and the radioactivity in the lipoproteins was counted as described previously (Kushwaha et al, (1986), supra). Any difference observed in the radioactivity transferred from HDL to VLDL+LDL at 4° C. and 37° C. was attributed to CETP activity in the LPDS. Time course experiments gave a linear response up to 7 hrs. Similarly, the CETP activity was linear with increasing LPDS, up to 140 μl LPDS, which was derived from an equivalent volume of plasma. The polypeptide of the invention, and synthetic fragments thereof were added to the reaction mixture to determine their CETP inhibitory activities, along with an appropriate synthetic control peptide. The percent difference between the control experiment and the assay with inhibitor peptide was expressed as the inhibitor activity. A CE transfer assay as described in Example 4 above was conducted using HDL1 baboon plasma, ^3 H HDL, and the VLDL+LDL carriers, in the presence of CETP enzyme to mediate the exchange. The reactions were conducted at 37° C. and at 4° C. (control) in duplicate.
# Human CETP = target: T1, Human CETP; assay: Inhibition of human CETP by synthetic CETP inhibitor peptide (human LPDS); format: biochemical; conditions: 100 μg peptide, HDL 10 μg, VLDL+LDL 50 μg, CETP 200 μl, 37 °C
# [1] = target: baboon plasma cholesteryl ester transfer protein (CETP), supplied as lipoprotein-deficient serum (LPDS, d>1.21 g/ml) from low HDL1 baboon plasma (baboon (papio sp.))
molecule,measurement,setting,value
"amino acids 28 to 36: C-terminal fragment of SEQ. ID. NO:1, amino acids 28 to 36 (9 amino acids) (KQSEFPAKT)",inhibitory activity of CETP at 50 μg,CETP; 50 μg peptide,limited inhibitory activity
same,activity inhibitory of CETP at 200 μg,"CETP; 200 μg peptide, compared with the 36 amino acid peptide",approximately the same as that of the 36 amino acid peptide
"amino acids 15 to 30: intermediate fragment of SEQ. ID. NO:1, amino acids 15 to 30 (TLEDKAWEVINRIKQS)",inhibitory activity of CETP,CETP,active as inhibitors of CETP
"4 kD polypeptide: endogenous CETP inhibitor polypeptide of molecular weight 4,000 electroeluted from lipoproteins of high HDL1 baboons (DVSSALDKLKEFGNTLEDKAWEVINRIKQSEFPAKT)",effect on transfer of CE from HDL to VLDL+LDL,CETP,significantly inhibited CETP activity
"amino acids 1 to 10: N-terminal fragment of SEQ. ID. NO:1, amino acids 1 to 10 (DVSSALDKLK)",inhibitory activity of CETP,CETP,active as inhibitors of CETP
"amino acids 1 to 20: N-terminal fragment of SEQ. ID. NO:1, amino acids 1 to 20 (DVSSALDKLKEFGNTLEDKA)",inhibitory activity of CETP,CETP,active as inhibitors of CETP
"amino acids 16 to 36: C-terminal fragment of SEQ. ID. NO:1, amino acids 16 to 36 (21 amino acids) (LEDKAWEVINRIKQSEFPAKT)",inhibitory activity of CETP at 50 μg,CETP; 50 μg peptide,limited inhibitory activity
APDVSSALDKLKEFGNTLEDKAWEVINRIKQSEFPAKT [SEQ. ID. NO:2],Inhibition (%),Human CETP; human CETP source AB (S.N. 6),60%
same,Inhibition (%),Human CETP; human CETP source EJ (S.N. 3),85%
same,Inhibition (%),Human CETP; human CETP source EW (S.N. 11),71%
same,Inhibition (%),Human CETP; human CETP source GL (S.N. 7),85%
same,Inhibition (%),Human CETP; human CETP source KC (S.N. 8),83%
same,Inhibition (%),Human CETP; human CETP source KR (S.N. 5),82%
same,Inhibition (%),Human CETP; human CETP source ML (S.N. 12),77%
same,Inhibition (%),Human CETP; human CETP source RK (S.N. 2),72%
same,Inhibition (%),Human CETP; human CETP source SH (S.N. 1),60%
same,Inhibition (%),Human CETP; human CETP source TH (S.N. 9),86%
same,Inhibition (%),Human CETP; human CETP source UM (S.N. 10),90%
"SEQ. ID. NO:1: synthetic 36 amino acid peptide, sequence of the 4 kD baboon CETP inhibitor, common with N-terminal fragment of apo C-I (DVSSALDKLKEFGNTLEDKAWEVINRIKQSEFPAKT)",inhibition of CE transfer from HDL to VLDL and LDL,"CETP; 50 μg peptide, lipoproteins of low HDL1 baboons",significantly (p<0.01) inhibited
same,inhibitory activity of CETP,CETP,inhibitory of CETP
"amino acids 1 to 15: N-terminal fragment of SEQ. ID. NO:1, amino acids 1 to 15 (DVSSALDKLKEFGNT)",inhibitory activity of CETP,CETP,active as inhibitors of CETP
Albumin [reference compound],effect on transfer of CE from HDL to VLDL+LDL,CETP,no effect
"TPDVSSALDKLKEFGNTLEDKARELISRIKQSELSAKM [synthetic CETP inhibitor peptide, human apo C-I terminal peptide with 38 amino acids (SEQ ID NO 3)]",Inhibition (%) of CETP-mediated cholesteryl ester transfer,[1],60%
"APDVSSALDKLKEFGNTLEDKAWEVINRIKQSEFPAKT [synthetic CETP inhibitor peptide, baboon apo C-I terminal peptide with 38 amino acids (SEQ ID NO 2)]",Inhibition (%) of CETP-mediated cholesteryl ester transfer,[1],52%
